Results as given in article PMC9141032 (International Journal of Molecular Sciences, 2022).

How the values were obtained:
5xFAD murine model = tested on: 5xFAD murine model; design: method as in ref 32, 33 = [32]; 32. Escolano C. Pallás M. Griñán-Ferré C. Abás S. Callado L.-F. García-Sevilla J.A. Synthetic I 2 Imidazoline Receptor Ligands for Prevention or Treatment of Human Brain Disorders Patent WO 2019/12185 || [33]; PMID 32150414; doi:10.1021/acs.jmedchem.9b02080; 33. Abás S. Rodríguez-Arévalo S. Bagán A. Griñán-Ferré C. Vasilopoulou F. Brocos-Mosquera I. Muguruza C. Pérez B. Molins E. Luque F.J. Bicyclic α-Iminophosphonates as High Affinity Imidazoline I 2 Rec; details: 5 mg/kg in drinking water, 4 weeks; cited from earlier work
[1] = Stability in mouse plasma; format: in vitro ADME; details: 10 µM, 37 °C
Procedure: The assessment of the plasma stability avoids misleading in vitro data and complex interpretation of the in vivo PK. […] Then, centrifugation led to a supernatant that was analysed for sample quantification.
Mouse plasma pooled from healthy donors extracted in citrate tubes was employed in the assay. […] Then, 100 µL of acetonitrile was added to precipitate the plasma protein, and the plate was centrifuged at 46,000× g for 60 min at 5 °C. Supernatant was taken and analysed by UPLC/MS/MS for sample quantification. The stationary phase was a reverse phase Acquity UPLC®BEH C18 1.7 µm (2.1 × 50 mm) (Waters), and the mobile phase was 0.1% formic acid in water/0.1% formic acid in acetonitrile, using a gradient and flow rate of 0.6 mL/min. The chromatographic equipment employed was an UPLC QSM Waters Acquity, and the compound concentrations were calculated from the MS peak areas.

SH-SY5Y cells [2] = experiment: Active caspase 3 in 6-OHDA-treated SH-SY5Y cells (immunodetection, Western blot); details: 1 μM, 16 h after 6-OHDA
[3] = In vivo pharmacokinetics in brain; details: male, CD1, mouse, ip, mice, 10 mg/kg intraperitoneal
Procedure: (§1) After treatment, mice were euthanized, and the plasma and brain were collected.
(§2) Male CD1 mice were supplied by the Laboratory Animal Service of the University of Granada (Granada, Spain) and housed in the Animal Facilities of the Center of Biomedical Investigation of the University of Granada. […] Calculations were performed using noncompartmental analysis of plasma data after intraperitoneal injection by means of PK Solver 2.0.
(§3) Basic PK parameters were calculated.

[4] = In vivo pharmacokinetics in plasma; design: species or system mouse
Procedure: as §1, §2, §3

SH-SY5Y cells [5] = experiment: Protection of SH-SY5Y cells from 6-OHDA-induced death (MTT); details: 6-OHDA 25 μM 16 h
mice [6] = experiment: Toxicity observation during the PK study; format: in vivo, mouse; details: single dose 10 mg/kg intraperitoneally
Procedure: Thus, two-month-old mice were treated with a single dose of 10 mg/kg intraperitoneally in ten groups (n = 3), for consecutive times: 0, 5, 15, 30 min and 1, 2, 4, 6, 8, 24 h. After treatment, mice were euthanized, and the plasma and brain were collected.

[7] = design: method as in ref 33 = [33]; PMID 32150414; doi:10.1021/acs.jmedchem.9b02080; 33. Abás S. Rodríguez-Arévalo S. Bagán A. Griñán-Ferré C. Vasilopoulou F. Brocos-Mosquera I. Muguruza C. Pérez B. Molins E. Luque F.J. Bicyclic α-Iminophosphonates as High Affinity Imidazoline I 2 Rec; details: previous studies, cited from earlier work
primary astrocytes = experiment: Nitrite production (Griess) in LPS-treated primary astrocytes; details: 1 μM 1 h, then LPS 10 μg/mL 24 h
mice [8] = tested on: mice; design: method as in ref 33 = [33]; PMID 32150414; doi:10.1021/acs.jmedchem.9b02080; 33. Abás S. Rodríguez-Arévalo S. Bagán A. Griñán-Ferré C. Vasilopoulou F. Brocos-Mosquera I. Muguruza C. Pérez B. Molins E. Luque F.J. Bicyclic α-Iminophosphonates as High Affinity Imidazoline I 2 Rec; details: repeated administration of 20 mg/kg for 5 days; cited from earlier work
SAMP8 murine model = details: cited from earlier work
primary microglial cells = experiment: Nitrite production (Griess) in LPS-treated primary microglia; details: 1 μM 1 h, then LPS 10 μg/mL 24 h
culture cells = tested on: culture cells; design: method as in ref 32, 33 = [32]; 32. Escolano C. Pallás M. Griñán-Ferré C. Abás S. Callado L.-F. García-Sevilla J.A. Synthetic I 2 Imidazoline Receptor Ligands for Prevention or Treatment of Human Brain Disorders Patent WO 2019/12185 || [33]; PMID 32150414; doi:10.1021/acs.jmedchem.9b02080; 33. Abás S. Rodríguez-Arévalo S. Bagán A. Griñán-Ferré C. Vasilopoulou F. Brocos-Mosquera I. Muguruza C. Pérez B. Molins E. Luque F.J. Bicyclic α-Iminophosphonates as High Affinity Imidazoline I 2 Rec; details: plethora of culture cells; cited from earlier work
[9] = male, CD1, mouse, ip, plasma, mice, 10 mg/kg intraperitoneal
[10] = plasma, mice, 10 mg/kg intraperitoneal

For `CCOP(=O)(OCC)[C@]1(c2ccccc2)N=C[C@H]2C(=O)N(c3ccc(F)c(Cl)c3)C(=O)[C@H]21` (racemic) [B06, diethyl (1RS,3aSR,6aSR)-5-(3-chloro-4-fluorophenyl)-4,6-dioxo-1-phenyl-1,3a,4,5,6,6a-hexahydropyrrolo[3,4-c]pyrrole-1-phosphonate], the effect on cognition (5xFAD murine model) is listed as “improving cognition and ameliorating the neurodegenerative condition”, the “remaining percentage in mouse plasma” value ([1]; 0 min) is listed as 100% and the “remaining percentage in mouse plasma” value ([1]; 10 min) is listed as 100%. The “remaining percentage in mouse plasma” value ([1]; 20 min) was 69.7%, the “remaining percentage in mouse plasma” value ([1]; 40 min) was 48.3% and the “remaining percentage in mouse plasma” value ([1]; 60 min) was 21.6%. For the same compound, the “effect on 6-OHDA-induced increase of cells expressing active caspase 3” value (SH-SY5Y cells [2]) was “this effect was reversed by the treatment with B06”, the AUC(0-inf) ([3]; in vivo) was 3310 ng·h/mL and the Cmax ([3]; in vivo) was 128 ± 66 ng/mL. It also gave a Tmax ([3]; in vivo) of 0.25 h, an AUC(0-t) ([3]; in vivo, read-out: AUC0–480 (converted)) of 2320 ng·h/mL and a half-life [3] of 4.28 h. The AUC(0-inf) [4, 9] was 3050 ng·h/mL, the Tmax [4, 9] was 0.25 h and the Cmax ([4]; male, CD1, mouse, ip, plasma, mice, 10 mg/kg intraperitoneal, single dose) was 950 ± 624 ng/mL. For the same compound, the AUC(0-t) ([4]; male, CD1, mouse, ip, plasma, mice, 10 mg/kg intraperitoneal, read-out: AUC0–1440 (converted)) was 2950 ng·h/mL, the half-life ([4]; male, CD1, mouse, plasma, ip, 10 mg/kg, mice, 10 mg/kg intraperitoneal) was 5.21 h and the “Cl (plasma clearance)” value [4, 10] was 0.054 ± 0.011 (mg/kg)/(μg/mL). For the same compound, the “Vz (volume of distribution)” value [4, 10] was 24.56 ± 4.74 (mg/kg)/(μg/mL), the t1/2 ([4]; plasma, mice, 10 mg/kg intraperitoneal, 10 mg/kg) was 5.2135 h and the “maximum mean concentration in plasma as % of the drug administered” value ([4]; single dose intraperitoneally) was no more than 1%. For the same compound, the “protection from 6-OHDA-induced cell death” value (SH-SY5Y cells [5]; 1 μM, 1 h pre-treatment) was “significantly rescued human dopaminergic cells from 6-OHDA-induced apoptosis”, the “lowest concentration at which the most beneficial effect was obtained” value (SH-SY5Y cells [5]; dose-response, MTT) was 1 µM and the “toxicity in organs or tissues, de visu observation after euthanasia” value (mice [6]) was “no toxicity in organs or tissues”. For the same compound, the “toxicity in the animals” value (mice [6]; up to 24 h) was “not toxicity in any of the animals”, the “mice microsomal percentage remanent” value ([7]; 60 min) was 65.08% and the “t ½ in mice microsomes” value [7] was 1.529 h. For the same compound, the “effect on nitrite production” value (primary astrocytes) was “significant decrease in nitrite production”, the “effect on body temperature” value (mice [8]) was “hypothermia” and the “effect on cognition and behaviour” value (SAMP8 murine model) was “improving cognition and ameliorating anxiety-like behaviour”. The “effect on nitrite production” value (primary microglial cells) was “significant decrease in nitrite production” and the cytotoxicity (culture cells) was “devoid of cytotoxicity”.
